Experimental data: PubChem BioAssay AID1259407 (Chemical Carcinogenesis Research Information System (CCRIS), 2018)
Active and inactive are the calls of the source. The rule behind the calls is not given here.

Test system: CCRIS mutagenicity, Ames/micronucleus/aberration tests
Assay: CCRIS mutagenicity studies
[1] = Test System: AMES SALMONELLA TYPHIMURIUM, Strain/Indicator: TA98, Metabolic Activation: HAMSTER, LIVER, S-9, AROCLOR 1254, Method: PREINCUBATION
[2] = Test System: AMES SALMONELLA TYPHIMURIUM, Strain/Indicator: TA98, Metabolic Activation: NONE, Method: PREINCUBATION
[3] = Test System: AMES SALMONELLA TYPHIMURIUM, Strain/Indicator: TA98, Metabolic Activation: RAT, LIVER, S-9, AROCLOR 1254, Method: PREINCUBATION
[4] = Test System: AMES SALMONELLA TYPHIMURIUM, Strain/Indicator: TA100, Metabolic Activation: HAMSTER, LIVER, S-9, AROCLOR 1254, Method: PREINCUBATION
[5] = Test System: AMES SALMONELLA TYPHIMURIUM, Strain/Indicator: TA100, Metabolic Activation: NONE, Method: PREINCUBATION
[6] = Test System: AMES SALMONELLA TYPHIMURIUM, Strain/Indicator: TA100, Metabolic Activation: RAT, LIVER, S-9, AROCLOR 1254, Method: PREINCUBATION
[7] = Test System: AMES SALMONELLA TYPHIMURIUM, Strain/Indicator: TA1535, Metabolic Activation: HAMSTER, LIVER, S-9, AROCLOR 1254, Method: PREINCUBATION
[8] = Test System: AMES SALMONELLA TYPHIMURIUM, Strain/Indicator: TA1535, Metabolic Activation: NONE, Method: PREINCUBATION
[9] = Test System: AMES SALMONELLA TYPHIMURIUM, Strain/Indicator: TA1535, Metabolic Activation: RAT, LIVER, S-9, AROCLOR 1254, Method: PREINCUBATION
[10] = Test System: AMES SALMONELLA TYPHIMURIUM, Strain/Indicator: TA1537, Metabolic Activation: HAMSTER, LIVER, S-9, AROCLOR 1254, Method: PREINCUBATION
[11] = Test System: AMES SALMONELLA TYPHIMURIUM, Strain/Indicator: TA1537, Metabolic Activation: NONE, Method: PREINCUBATION
[12] = Test System: AMES SALMONELLA TYPHIMURIUM, Strain/Indicator: TA1537, Metabolic Activation: RAT, LIVER, S-9, AROCLOR 1254, Method: PREINCUBATION
[13] = Test System: AMES SALMONELLA TYPHIMURIUM, Strain/Indicator: TA1535, Metabolic Activation: NONE, Method: STANDARD PLATE
[14] = Test System: AMES SALMONELLA TYPHIMURIUM, Strain/Indicator: TA98, Metabolic Activation: NONE, Method: STANDARD PLATE
[15] = Test System: AMES SALMONELLA TYPHIMURIUM, Strain/Indicator: TA100, Metabolic Activation: NONE, Method: STANDARD PLATE

Brc1ccccc1-c1ccccc1
mutagenic call [1]: inactive; negative | mutagenic call [2]: inactive; negative | mutagenic call [3]: inactive; negative | mutagenic call [4]: inactive; negative | mutagenic call [5]: inactive; negative | mutagenic call [6]: inactive; negative | mutagenic call [7]: inactive; negative | mutagenic call [8]: inactive; negative | mutagenic call [9]: inactive; negative | mutagenic call [10]: inactive; negative | mutagenic call [11]: inactive; negative | mutagenic call [12]: inactive; negative

OC1c2cccc3c2[C@]2(O[C@H]2C1O)c1ccccc1-3 (some centres not stated)
mutagenic call (Test System: AMES SALMONELLA TYPHIMURIUM, Strain/Indicator: TM677, Metabolic Activation: NONE, Method: PREINCUBATION): active; positive | mutagenic call (Test System: AMES SALMONELLA TYPHIMURIUM, Strain/Indicator: TM677, Metabolic Activation: RAT, LIVER, POSTMITOCHONDRIAL SUPERNATANT, AROCLOR 1254, Method: PREINCUBATION): active; positive

CN=NNC
mutagenic call [13]: active; positive

CC1(C)S[C@@H]2[C@H](NC(=O)COc3ccccc3)C(=O)N2[C@H]1C(=O)O
mutagenic call [1]: inactive; negative | mutagenic call [2]: inactive; negative | mutagenic call [3]: inactive; negative | mutagenic call [4]: inactive; negative | mutagenic call [5]: inactive; negative | mutagenic call [6]: inactive; negative | mutagenic call [7]: inactive; negative | mutagenic call [8]: inactive; negative | mutagenic call [9]: inactive; negative | mutagenic call [10]: inactive; negative | mutagenic call [11]: inactive; negative | mutagenic call [12]: inactive; negative | mutagenic call (Test System: MOUSE LYMPHOMA, Strain/Indicator: L5178Y (TK+/TK-), Metabolic Activation: NONE, Method: SUSPENSION/PLATE): inactive; negative | mutagenic call (Test System: MOUSE LYMPHOMA, Strain/Indicator: L5178Y (TK+/TK-), Metabolic Activation: RAT, LIVER, S-9, Method: SUSPENSION/PLATE): active; positive

CCOC(=O)C1(CCCCCCOCc2cccs2)CO1 (configuration not stated)
mutagenic call [14]: active; positive | mutagenic call (Test System: AMES SALMONELLA TYPHIMURIUM, Strain/Indicator: TA98, Metabolic Activation: S-9, Method: STANDARD PLATE): active; positive | mutagenic call [15]: inactive; negative | mutagenic call (Test System: AMES SALMONELLA TYPHIMURIUM, Strain/Indicator: TA100, Metabolic Activation: S-9, Method: STANDARD PLATE): inactive; negative | mutagenic call (Test System: AMES SALMONELLA TYPHIMURIUM, Strain/Indicator: TA102, Metabolic Activation: NONE, Method: STANDARD PLATE): inactive; negative | mutagenic call (Test System: AMES SALMONELLA TYPHIMURIUM, Strain/Indicator: TA102, Metabolic Activation: S-9, Method: STANDARD PLATE): inactive; negative | mutagenic call [13]: inactive; negative | mutagenic call (Test System: AMES SALMONELLA TYPHIMURIUM, Strain/Indicator: TA1535, Metabolic Activation: S-9, Method: STANDARD PLATE): inactive; negative | mutagenic call (Test System: AMES SALMONELLA TYPHIMURIUM, Strain/Indicator: TA1537, Metabolic Activation: NONE, Method: STANDARD PLATE): inactive; negative | mutagenic call (Test System: AMES SALMONELLA TYPHIMURIUM, Strain/Indicator: TA1537, Metabolic Activation: S-9, Method: STANDARD PLATE): inactive; negative

CCOc1ccc([N+](=O)[O-])cc1
mutagenic call [2]: active; positive | mutagenic call (Test System: AMES SALMONELLA TYPHIMURIUM, Strain/Indicator: TA100(NR), Metabolic Activation: RAT, LIVER, S-9, PCB, Method: PREINCUBATION): inactive; negative | mutagenic call [8]: inactive; negative | mutagenic call [11]: inactive; negative | mutagenic call (Test System: AMES SALMONELLA TYPHIMURIUM, Strain/Indicator: TA1538, Metabolic Activation: NONE, Method: PREINCUBATION): inactive; negative | mutagenic call (Test System: AMES SALMONELLA TYPHIMURIUM, Strain/Indicator: YG1026, Metabolic Activation: NONE, Method: PREINCUBATION): active; positive | mutagenic call (Test System: AMES SALMONELLA TYPHIMURIUM, Strain/Indicator: YG1029, Metabolic Activation: NONE, Method: PREINCUBATION): active; positive | mutagenic call (Test System: AMES SALMONELLA TYPHIMURIUM, Strain/Indicator: YG1042, Metabolic Activation: NONE, Method: PREINCUBATION): active; positive

CCc1ccccc1NC(=O)c1csc([N+](=O)[O-])c1
mutagenic call [14]: active; positive | mutagenic call [15]: active; positive

Cc1c2c3ccccc3nc-2n(C)c2ccccc12
mutagenic call (Test System: AMES SALMONELLA TYPHIMURIUM, Strain/Indicator: TA97, Metabolic Activation: RAT, LIVER, S-9, AROCLOR 1254, Method: STANDARD PLATE): active; positive | mutagenic call (Test System: AMES SALMONELLA TYPHIMURIUM, Strain/Indicator: TA102, Metabolic Activation: RAT, LIVER, S-9, AROCLOR 1254, Method: STANDARD PLATE): active; positive

O=NN(c1ccc(C(=O)O)cc1)C1OC[C@@H](O)[C@@H](O)[C@@H]1O (some centres not stated)
mutagenic call (Test System: AMES SALMONELLA TYPHIMURIUM, Strain/Indicator: TA100, Metabolic Activation: NONE, Method: LIQUID INCUBATION): active; positive
